From patent US10071129B2, “Method for identifying bromodomain inhibitors” (WHITEHEAD INSTITUTE FOR BIOMEDICAL RESEARCH DANA-FARBER …, priority 2011, dated 2018)

What was measured:
[1] = system: cMyc; test: cMyc protein levels after JQ1 treatment of multiple myeloma cells; assay type: cell-based; settings: multiple myeloma cells treated with JQ1
Protocol: (§1) To test BET bromodomain inhibitors as a strategy to downregulate the cMyc transcriptional network and the mechanism of downregulation, multiple myeloma cells were treated with JQ1.

[2] = system: multiple myeloma cells; test: Antiproliferative effect of JQ1 treatment in multiple myeloma cells; assay type: cell-based; settings: multiple myeloma cells treated with JQ1
Protocol: as §1

[3] = biological target: BRD4 (Homo sapiens, UniProt O60885); settings: MM.1S cells, 500 nM, 24 hours
Protocol: Approximately 1×10^8 MM1S cells were treated with 500 nM JQ1 or DMSO for 24 hours and crosslinked with 1.1% formaldehyde (10× crosslink solution contains 11% formaldehyde, 50 mM Hepes pH7.3, 100 mM NaCl, 1 mM EDTA p118.0, 0.5 mM EGTA pH8.0) to the growth media followed by two washes with PBS. Cells were scraped and frozen in liquid nitrogen. Brd4 ChIP-PCR analysis was done on these cells following the protocol in Rahl et al. Cell 2010. In brief, 75 ul of Dynal magnetic beads (Sigma) were blocked with 0.5% BSA (w/v) in PBS. Magnetic beads were bound with 6.25 ug of Brd4 antibody (Bethyl Labs, A310-985A, lot A301-985A-1, FIG. 1A or Sigma, HPA015055-100, lot A31530, FIG. 1B). […]
Brd4 ChIP and input DNA were analyzed using SYBR Green real-time PCR analysis (Applied Biosystems). […] Fold enrichment was determined from triplicate PCR reactions at five potential enhancer regions adjacent to the MYC gene in non-translocated cells (MYC_E1, MYC_E2, MYC_E3, MYC_E4, MYC_E5), the MYC transcriptional start site (MYC_TS1, MYC_TS2), IGH enhancer regions (IGH_E1, IGH_E2, IGH_E3, IGH_E4), and two negative regions upstream of the MYC enhancers (MYC_NR2, MYC_NR3) over input DNA using DDCt over the negative region MYC_NR1.

[4] = system: cMyc target genes; test: Genome-wide expression of cMyc target genes and MYC transcription after JQ1 treatment; assay type: cell-based
Protocol: as §1

Cc1sc2c(c1C)C(c1ccc(Cl)cc1)=N[C@@H](CC(=O)OC(C)(C)C)c1nnc(C)n1-2 [JQ1, [(S)-4-(4-Chloro-phenyl)-2,3,9-trimethyl-6H-1-thia-5,7,8,9a-tetraaza-cyclopenta[e]azulen-6-yl]-acetic acid tert-butyl ester]
cMyc protein levels [1]: rapid downregulation of cMyc protein levels
antiproliferative effect [2]: potent antiproliferative effect
BRD4 binding to IgH enhancers and the TSS (ChIP) [3]: significantly depleted BRD4 binding to IgH enhancers and the TSS
MYC transcription ([4]; multiple myeloma cells treated with JQ1): early and sustained JQ1-induced suppression of MYC transcription
expression of cMyc target genes ([4]; multiple myeloma cells treated with JQ1, genome-wide): genome-wide downregulation of cMyc target genes
